Measured values taken from patent US20170119660A1, “PHARMACEUTICAL COMPOSITIONS FOR TRANSMUCOSAL DELIVERY” (Solubest Ltd, priority 2015, published 2017).

Experiments:
[1] = Dissolution test of cannabidiol compositions in FaSSIF; format: physicochemical; design: unit not given here; settings: 200 ml FaSSIF, drug loading 20 mg
Protocol: (§1) The liquid intermediates, containing the active compound(s) and the polymers, were prepared using different size glassware, magnetic plates, peristaltic pump and tubing. The spray-drying process was conducted using Mini Spray Dryer B-290 of Buchi Labortechnik AG. Tablet compression was performed with a Mini 8-D tablet press Dynamic Exim Co. Ltd. Granules preparation was performed with Dynamic Exim dry granulator. The dissolution test was performed in accordance with USP Dissolution Method <711> and FDA Dissolution Methods for Drug Products using the paddle apparatus Pharma Test model DT70 equipped with 1L and 250 ml vessels. The quantification was performed using HPLC, Dionex. Appropriate amount of prepared granules or tablets as well as control powders or tablets were dissolved in 250 ml of artificial saliva, at 37° C., with rotation speed of 75 rpm. Simulated saliva solution was prepared according to SS5 solution recipe reported in Marques et al, 2011, Dissolution Technologies, 18, 15-28. The tablets disintegration test was performed in accordance with USP Disintegration Method <701>.
Unformulated cannabidiol (CBD) and composition of the present invention (Example 13) were subjected to a dissolution test in 200 ml of Fasted State Simulating Intestinal Fluid (FaSSIF). The drug loading was 20 mg.

[2] = Dissolution test of powders and granules in simulated saliva; format: physicochemical; settings: drug loading 10 mg/ml
Protocol: as §1, with “The dissolution test was performed in accordance with USP Dissolution Method <711> and FDA Dissolution Methods for Drug Products using the paddle apparatus Pharma Test model DT70 equipped with 1L and 250 ml vessels.” left out, “<701>. […] The drug loading in the first set of experiments was 2.5 mg/ml.” for “<701>.”

EpiOral™ buccal tissues = assay: Franz diffusion cell permeability through human buccal tissue; format: in vitro ADME; settings: 7.5 mg/ml in artificial saliva
Protocol: Permeability studies were performed as follows. The barrier membranes, EpiOral™ representing a highly differentiated, three-dimensional, cultured human buccal tissue equivalent were obtained from MatTek Corp (Ashland, Mass.). Samples were mounted in vertical Franz diffusion cells (PermeGear Inc., Bethlehem, Pa.). […] The fluid in each receptor compartment was maintained at 37±0.5° C. by using a thermostatic water pump (Freed Electric, Haifa, Israel) that circulated water through the jacket surrounding each main chamber. The biological membranes were initially left in the Franz cells for 1 h in order to facilitate their hydration before the experiment. After this period, a 500-μL aliquot of 7.5 mg/ml sumatriptan solution/dispersion in artificial saliva was deposited in each donor compartment. The donor compartment was covered with Parafilm® to prevent evaporation. Receptor solution samples of 300 μL were then collected at 3, 6, 9, 12, 20, 40 and 60 minutes and replaced with 300 μL phosphate buffer, placed on ice and stored at −20° C. until subjected to HPLC or LCMS analysis. Each permeation experiment was conducted as four replicate runs.
The permeability of unformulated sumatriptan base, of API (in the base form) released from the composition of the present invention (Example 3) and of the commercial formulation Imitrex® was tested using EpiOral™ buccal tissues as described in the Methods section. EpiOral™ buccal tissues consist of normal, human-derived epithelial cells that have been cultured to form multilayered, highly differentiated models of the human buccal phenotypes.

Drug released ([2]; 5 min) [%] | Drug released ([2]; 10 min) [%] | Drug released ([2]; 20 min) [%] | STP Permeability (EpiOral™ buccal tissues; time point 0 min) [μg/cm^2] | STP Permeability (EpiOral™ buccal tissues; time point 3 min) [μg/cm^2] | STP Permeability (EpiOral™ buccal tissues; time point 6 min) [μg/cm^2] | STP Permeability (EpiOral™ buccal tissues; time point 9 min) [μg/cm^2] | STP Permeability (EpiOral™ buccal tissues; time point 12 min) [μg/cm^2] | STP Permeability (EpiOral™ buccal tissues; time point 20 min) [μg/cm^2] | STP Permeability (EpiOral™ buccal tissues; time point 40 min) [μg/cm^2] | STP Permeability (EpiOral™ buccal tissues; time point 60 min) [μg/cm^2] | SMILES | Dissolution profile ([1]; Time 0) | Dissolution profile ([1]; Time 10) | Dissolution profile ([1]; Time 20) | Dissolution profile ([1]; Time 30) | Dissolution profile ([1]; Time 45) | Dissolution profile ([1]; Time 60) | Dissolution profile ([1]; Time 90)
– | – | – | – | – | – | – | – | – | – | – | C=C(C)[C@@H]1CCC(C)=C[C@H]1c1c(O)cc(CCCCC)cc1O [Unformulated CBD, Cannabidiol] | 0 | 1.7 | 2.7 | 3.8 | 5.2 | 6.3 | 8.2
13 | 13 | 13 | 0.000 | 0.330 | 0.736 | 0.964 | 1.295 | 2.671 | 6.938 | 14.887 | CNS(=O)(=O)Cc1ccc2[nH]cc(CCN(C)C)c2c1 [Unformulated sumatriptan, Sumatriptan base] | – | – | – | – | – | – | –
